Measured values from PubChem BioAssay AID268 (DTP/NCI, 2004).
Values joined by “and” are separate entries in the source; they are usually repeats but may differ in a detail not shown here. Identical values can stand only once.

Tested on: CD2F1 mice, P1798 lymphosarcoma sc, tumor weight T/C
Experiment: NCI In Vivo Anticancer Drug Screen. Data for tumor model P1798 Lymphosarcoma (subcutaneous) in CD2F1 (CDF1) mice
Conditions: endpoint: mean tumor weight, higher = larger tumour
Experimental: The antitumor activity of compounds was measured in mice bearing transplantable tumors. Survival or tumor size were measured and the results are expressed as the measurement made in the treated group (T) divided by the measurement made in the vehicle treated control group (C). The tumor model used in this assay is P1798 Lymphosarcoma (subcutaneous) in CD2F1 (CDF1) mice

[1] = dose: 25.0 mg/kg/injection, schedule: Q01DX010 (ip), vehicle: saline
[2] = dose: 50.0 mg/kg/injection, schedule: Q01DX010 (ip), vehicle: saline
[3] = dose: 100.0 mg/kg/injection, schedule: Q01DX010 (ip), vehicle: saline
[4] = dose: 6.25 mg/kg/injection, schedule: Q01DX010 (ip), vehicle: saline
[5] = dose: 12.5 mg/kg/injection, schedule: Q01DX010 (ip), vehicle: saline
[6] = dose: 25.0 mg/kg/injection, schedule: Q01DX010 (sc), vehicle: steriod suspending solution
[7] = dose: 1.56 mg/kg/injection, schedule: Q01DX010 (ip), vehicle: saline
[8] = dose: 3.13 mg/kg/injection, schedule: Q01DX010 (ip), vehicle: saline
[9] = dose: 50.0 mg/kg/injection, schedule: Q01DX010 (sc), vehicle: steriod suspending solution
[10] = dose: 100.0 mg/kg/injection, schedule: Q01DX010 (sc), vehicle: steriod suspending solution
[11] = dose: 200.0 mg/kg/injection, schedule: Q01DX010 (sc), vehicle: steriod suspending solution
[12] = dose: 400.0 mg/kg/injection, schedule: Q01DX010 (sc), vehicle: steriod suspending solution
[13] = dose: 40.0 mg/kg/injection, schedule: Q01DX010 (ip), vehicle: saline

## Nc1nc(=S)c2[nH]cnc2[nH]1
dose: 0.63 mg/kg/injection, schedule: Q01DX010 (ip), vehicle: saline
  T/C: 74 % of control
dose: 1.25 mg/kg/injection, schedule: Q01DX010 (ip), vehicle: saline
  T/C: 51 % of control and 72 % of control
dose: 2.5 mg/kg/injection, schedule: Q01DX010 (ip), vehicle: saline
  T/C: 44 % of control

## CC(=O)NCCSC(=O)C(=O)SCCNC(C)=O
[1]
  T/C: 111 % of control
[2]
  T/C: 104 % of control
[3]
  T/C: 110 % of control

## S=c1nc[nH]c2nc[nH]c12
dose: 10.0 mg/kg/injection, schedule: Q01DX010 (ip), vehicle: alkali diluted with saline
  T/C: 90 % of control
dose: 80.0 mg/kg/injection, schedule: Q01DX010 (ip), vehicle: alkali diluted with saline
  T/C: 35 % of control

## CCCNc1ncnc2[nH]ncc12
[4]
  T/C: 92 % of control and 95 % of control
[5]
  T/C: 72 % of control
[1]
  T/C: 25 % of control

## C#C[C@]1(O)CC[C@H]2[C@@H]3CCc4cc(O)ccc4[C@H]3CC[C@@]21C
[6]
  T/C: 71 % of control and 85 % of control

## COc1cc(C[C@H]2c3cc(OC)c(OC)cc3CCN2C)c(Oc2cc3c(cc2OC)-c2c(OC)c(OC)cc4c2[C@H](C3)N(C)CC4)cc1OC
dose: 50.0 mg/kg/injection, schedule: Q01DX011 (ip), vehicle: carboxymethylcellulose (CMC)
  T/C: 13 % of control

## C=CCOc1ccc2c(c1)CC[C@@H]1[C@@H]2CC[C@]2(C)[C@@H](O)[C@@H](O)C[C@@H]12
dose: 6.25 mg/kg/injection, schedule: Q01DX010 (sc), vehicle: steriod suspending solution
  T/C: 98 % of control and 82 % of control
dose: 12.5 mg/kg/injection, schedule: Q01DX010 (sc), vehicle: steriod suspending solution
  T/C: 77 % of control and 88 % of control

## CN(C)CCCN1c2ccccc2Sc2ccc(C(F)(F)F)cc21
[5]
  T/C: 55 % of control
[1]
  T/C: 19 % of control

## O=C(O)C(=O)O.[U]
[7]
  T/C: 64 % of control
[8]
  T/C: 45 % of control
[4]
  T/C: 28 % of control
[5]
  T/C: 30 % of control

## CC(=O)OCC(=O)[C@@]1(O)CC[C@H]2[C@@H]3C[C@H](C)C4=CC(=O)C=C[C@]4(C)[C@H]3[C@@H](O)C[C@@]21C
[9]
  T/C: 5 % of control

## CC(=O)[C@H]1CC[C@H]2[C@@H]3CCC4=CC(=O)[C@H](C)C[C@]4(C)[C@@]3(F)[C@@H](O)C[C@]12C
[6]
  T/C: 15 % of control
[9]
  T/C: 5 % of control
[10]
  T/C: 4 % of control
[11]
  T/C: 6 % of control
[12]
  T/C: 5 % of control

## COCCOC
dose: 300.0 mg/kg/injection, schedule: Q01DX010 (ip), vehicle: saline
  T/C: 100 % of control
dose: 450.0 mg/kg/injection, schedule: Q01DX010 (ip), vehicle: saline
  T/C: 62 % of control
dose: 675.0 mg/kg/injection, schedule: Q01DX010 (ip), vehicle: saline
  T/C: 60 % of control

## CS(=O)(=O)OCCC(=O)N1CCN(C(=O)CCOS(C)(=O)=O)CC1
[5]
  T/C: 77 % of control
[1]
  T/C: 71 % of control
[2]
  T/C: 7 % of control
[3]
  T/C: 4 % of control

## O=c1[nH]c(=O)n(C2CC(O)C(CO)O2)cc1F (configuration not stated)
dose: 5.0 mg/kg/injection, schedule: Q01DX010 (ip), vehicle: saline
  T/C: 73 % of control
dose: 10.0 mg/kg/injection, schedule: Q01DX010 (ip), vehicle: saline
  T/C: 68 % of control and 84 % of control
dose: 20.0 mg/kg/injection, schedule: Q01DX010 (ip), vehicle: saline
  T/C: 47 % of control and 55 % of control
[13]
  T/C: 15 % of control and 28 % of control
dose: 80.0 mg/kg/injection, schedule: Q01DX010 (ip), vehicle: saline
  T/C: 1 % of control

## O=C(O)CCCc1ccc(N(CCCl)CCCl)cc1
[7]
  T/C: 69 % of control
[8]
  T/C: 31 % of control and 52 % of control
[4]
  T/C: 32 % of control and 37 % of control
[5]
  T/C: 3 % of control

## CC(=O)Nc1ccc(/C=N/Nc2ccc([N+](=O)[O-])cn2)cc1
dose: 62.5 mg/kg/injection, schedule: Q01DX010 (ip), vehicle: saline
  T/C: 66 % of control
dose: 125.0 mg/kg/injection, schedule: Q01DX010 (ip), vehicle: saline
  T/C: 75 % of control
dose: 250.0 mg/kg/injection, schedule: Q01DX010 (ip), vehicle: saline
  T/C: 16 % of control

## C[C@]12CC[C@@H]3c4ccccc4CC[C@H]3[C@@H]1CC[C@@H]2O
[10]
  T/C: 94 % of control
[11]
  T/C: 74 % of control
[12]
  T/C: 33 % of control
dose: 800.0 mg/kg/injection, schedule: Q01DX010 (sc), vehicle: steriod suspending solution
  T/C: 7 % of control

## CC(=O)c1ccccc1C
dose: 18.0 mg/kg/injection, schedule: Q01DX010 (ip), vehicle: saline
  T/C: 44 % of control
dose: 27.0 mg/kg/injection, schedule: Q01DX010 (ip), vehicle: saline
  T/C: 42 % of control
[13]
  T/C: 42 % of control

## NCC(=O)NCCCCCCNCCCCCCNC(=O)CN
[2]
  T/C: 82 % of control
[3]
  T/C: 113 % of control
dose: 200.0 mg/kg/injection, schedule: Q01DX010 (ip), vehicle: saline
  T/C: 89 % of control
dose: 400.0 mg/kg/injection, schedule: Q01DX010 (ip), vehicle: saline
  T/C: 73 % of control
